The target of assay [1] is T1, MLLT1 (Homo sapiens, UniProt Q03111).
T1 sequence (Q03111 1-559): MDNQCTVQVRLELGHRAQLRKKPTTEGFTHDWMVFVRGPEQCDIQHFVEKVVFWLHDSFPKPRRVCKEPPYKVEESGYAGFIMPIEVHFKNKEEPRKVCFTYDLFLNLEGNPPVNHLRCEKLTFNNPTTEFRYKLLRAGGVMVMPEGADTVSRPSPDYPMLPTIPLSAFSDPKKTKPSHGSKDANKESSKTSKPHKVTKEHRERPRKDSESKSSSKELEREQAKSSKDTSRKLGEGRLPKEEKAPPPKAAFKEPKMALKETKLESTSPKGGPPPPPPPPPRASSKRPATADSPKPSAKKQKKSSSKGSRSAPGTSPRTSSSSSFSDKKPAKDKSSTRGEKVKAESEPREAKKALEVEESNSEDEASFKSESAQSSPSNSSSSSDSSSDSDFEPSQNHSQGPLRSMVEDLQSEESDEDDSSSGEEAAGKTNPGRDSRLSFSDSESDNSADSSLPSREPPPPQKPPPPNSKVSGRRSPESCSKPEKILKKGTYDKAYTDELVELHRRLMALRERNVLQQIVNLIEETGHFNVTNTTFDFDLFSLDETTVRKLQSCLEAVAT
In words: MLLT1 HTRF IC50 determination assay (H3K9cro peptide displacement). It is filed as binding. An excerpt: (§1) This procedure is intended to measure the interaction between YEATS proteins and histone peptides modified by an appropriate epigenetic mark and can be used to assay compounds which bind to the YEATS proteins and inhibit this interaction. The assay uses 6His tagged MLLT1 or MLLT3 with an anti-6His antibody conjugated with Eu^3+ chelate (donor) and a biotinylated peptide with Streptavidin conjugated XL-665 (acceptor). When the donor and acceptor labels are in close proximity, by binding of the peptide by MLLT1 or MLLT3, the excitation of the donor (337 nm) triggers a Fluorescence Resonance Energy Transfer (FRET) to the acceptor which then fluoresces at specific wavelength (665 nm).
(§2) This step optimises the protein/peptide ratio that will be used in HTRF screening assay in order to allow the best signal-to-noise ratio. Each new purified protein should be titrate this way as the signal-to-noise ratio may differ from different protein batches. Displacement assay for MLLT1 and MLLT3 was performed by using H3K9 cro peptide (ARTKQTAR(Kcrot)STGGKAPRKQLYK(biotin)).
(§3) A serial dilution of 4× solution of biotinylated peptide was prepared in assay buffer (25 mM HEPES, 20 mM NaCl, 0.05% BSA, 0.05% Tween-20, pH 7.0) covering concentrations from 3.2 μM to 0.2 nM. and 5 μL of each dilution were transferred horizontally to fill 15 columns of a white ProxiPlate-384 Plus shallow well Microplate (Perkin Elmer, USA). A sixteenth column of buffer was also included for a background reference. In parallel, a serial dilution of the 6His-tag protein of interest was prepared in the same way and 5 μL of each dilution were vertically added to the wells containing the peptide dilutions. Buffer has been transferred to the last line of the plate in order to make a no-protein reference. The microplate has been covered and incubated 1 hour at room temperature. A 2× detection mix was prepared in assay buffer by diluting streptavidin conjugated with XL-665 (610SAXLB, Cisbio Bioassays, France) to 1/2000 and anti-6His(Eu) chelate (LANCE Eu-W1024 Anti-6×His, ADO111, Perkinelmer LAS (UK)LTD) to 1/20000, 10 μL were added to each well and the plate has been incubated for 1 to 24 hours at room temperature in the dark. The plate was read in the Pherastar using the HTRF module with dual emission protocol (A=ex. 320 nm em. 665 nm, B=ex. 320 nm em. 620 nm).
(§4) The HTRF ratio was calculated as channel A/B*10000 and the specific signal as follow: specific signal=HTRF Ratio Positive signal—HTRF Ratio Negative signal (without protein). The concentrations of protein and peptide that allow the maximum specific signal without saturation were selected to perform HRTF screening assay described below.
(§5) The compounds were dissolved in DMSO at a stock concentration of 10 mM and dispensed into microplate using the Echo acoustic liquid handler (Labcyte, Beckman Coulter, USA). The assay covers a window of compound concentrations from 20 μM to 20 nM spread in 11 data points in duplicate. Solvent and compound controls were added to each plate in order to calculate the background signal.
(§6) Ten microliters of 2× mix of 6His-protein and biotinylated peptide, the concentrations were determined above, were added to the dispensed compounds and incubated for one hour at room temperature in the dark. Ten microliters of the 2× detection mix was added to each well and the plate was incubated for another hour at room temperature in the dark and the plate was read in order to calculate the HTRF specific signal. The % inhibition values as follows:
(§7) The IC50 values were determined by plotting % inhibition vs compound concentration and fitting the data to a non-linear sigmoidal dose response equation (4 parameter fit): […]

The target in the next assay is T2, MLLT3 (Homo sapiens, UniProt P42568).
T2 sequence (P42568 1-568): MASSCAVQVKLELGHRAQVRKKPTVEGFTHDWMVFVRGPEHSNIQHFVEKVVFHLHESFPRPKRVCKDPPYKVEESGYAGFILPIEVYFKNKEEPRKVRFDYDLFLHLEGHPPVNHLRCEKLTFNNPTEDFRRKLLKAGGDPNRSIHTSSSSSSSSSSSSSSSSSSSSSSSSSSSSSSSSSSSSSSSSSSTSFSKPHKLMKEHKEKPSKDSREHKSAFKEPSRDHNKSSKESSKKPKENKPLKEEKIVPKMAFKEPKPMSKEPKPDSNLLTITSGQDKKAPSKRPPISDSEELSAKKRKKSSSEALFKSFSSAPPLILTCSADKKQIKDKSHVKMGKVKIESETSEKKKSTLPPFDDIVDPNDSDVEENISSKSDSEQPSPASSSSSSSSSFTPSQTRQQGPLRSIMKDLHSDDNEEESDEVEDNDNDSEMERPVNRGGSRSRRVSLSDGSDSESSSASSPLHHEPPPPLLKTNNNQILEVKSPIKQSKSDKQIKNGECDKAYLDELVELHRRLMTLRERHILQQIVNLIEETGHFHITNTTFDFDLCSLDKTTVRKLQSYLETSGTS
Briefly: MLLT3 HTRF IC50 determination assay (H3K9cro peptide displacement). It is filed as binding.
Source text: as §1, §2, §3, §4, §5, §6, §7

The next assay has as its system MV4-11 cells. Briefly: MV4-11 cellular proliferative assay, Assay Format B (CTG 2.0, 168 h). It is filed as cell-based. Particulars: Homo sapiens, Assay format B, 168 h, read-out: IC50 (MV4-11 cellular proliferative assay). The method in brief: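 Cells seeded at 600/well in IMDM + 10% FBS, incubated overnight, then exposed 168 h (7 days) at 37 °C to 10 concentrations, 3-fold dilutions from 1 uM or 100 nM top dose (0.3% DMSO final). Viability by CTG 2.0 luminescence as % of DMSO control; curves fitted by four-parameter logistic regression.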

Assay [2] concerns the target T1, MLLT1. In words: MLLT1 degradation assay in MV4-11 cells (JESS, 24 h). It is filed as cell-based. Also noted: endogenous in cells; host or cells: MV4-11 (ATCC CRL-9591). Particulars: vs DMSO control. The method in brief: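 MV4-11 cells treated at 1000, 100 and 10 nM (0.1% DMSO) for 24 h at 37° C; lysates (4 ug protein) run on JESS capillary immunoassay with MLLT1 and GAPDH antibodies. Peak areas give % degradation versus DMSO, binned A (≥75%) to D (<25%).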

The structures appear in SMILES notation. A value given as a limit tells only on which side of the number the result lay.

For the compound `Cc1nn(C)c2cc(C(=O)Nc3cc4[nH]c(C5CCCN5C)cc4cn3)ccc12` (racemic) [Example 75, rac-1,3-dimethyl-N-(2-(1-methylpyrrolidin-2-yl)-1H-pyrrolo[3,2-c]pyridin-6-yl)-1H-indazole-6-carboxamide], the 50% inhibitory concentration (IC50) at MLLT1 [1] (category, Table 4) is no more than 100 nM; on MLLT3 (category, Table 4), 100 to 1000 nM.

Regarding `Cc1nn(C)c2cc(C(=O)Nc3cc4[nH]c([C@@H]5CCCN5C)cc4cn3)ccc12` (single isomer, unassigned) [Example 77], the IC50 on MLLT1 [1] (category, Table 4) fell in the range of 100 to 1000 nM; on MLLT3 (category, Table 4), 1000 to 10000 nM.

In the case of `CN1CCCC1c1cc2cnc(NC(=O)c3ccc4c(cnn4C)c3)cc2[nH]1` (single isomer, unassigned) [Example 78, 1-methyl-N-{2-[(rel-2S)-1-methylpyrrolidin-2-yl]-1H-pyrrolo[3,2-c]pyridin-6-yl}indazole-5-carboxamide], the concentration for half-maximal inhibition (IC50) at MLLT1 [1] (category, Table 4) fell in the range of 1000 to 10000 nM; at MLLT3 (category, Table 4), 1000 to 10000 nM.

With `CN1CCCC1c1cc2cnc(NC(=O)c3ccc4c(cnn4C)c3)cc2[nH]1` (single isomer, unassigned) [Example 79, 1-methyl-N-{2-[(rel-2R)-1-methylpyrrolidin-2-yl]-1H-pyrrolo[3,2-c]pyridin-6-yl}indazole-5-carboxamide], the 50% inhibitory concentration (IC50) at MLLT1 [1] (category, Table 4) is no more than 100 nM; on MLLT3 (category, Table 4), no more than 100 nM.

Consider `CCN1CCCC1c1cc2cnc(NC(=O)c3ccc4c(C)nn(C)c4c3)cc2[nH]1` (single isomer, unassigned) [Example 84, N-{2-[(rel-2R)-1-ethylpyrrolidin-2-yl]-1H-pyrrolo[3,2-c]pyridin-6-yl}-1,3-dimethylindazole-6-carboxamide], for which the IC50 at MLLT1 [1] (category, Table 4) lay within 100 to 1000 nM; on MLLT3 (category, Table 4) it was 100 to 1000 nM.

For the compound `CCN1CCCC1c1cc2cnc(NC(=O)c3ccc4c(C)nn(C)c4c3)cc2[nH]1` (single isomer, unassigned) [Example 85, N-{2-[(rel-2S)-1-ethylpyrrolidin-2-yl]-1H-pyrrolo[3,2-c]pyridin-6-yl}-1,3-dimethylindazole-6-carboxamide], on MLLT1 [1] (category, Table 4), the IC50 lay within 1000 to 10000 nM.

Take `CN1CCCC1c1[nH]c2cc(NC(=O)c3ccc4c(cnn4C)c3)ncc2c1F` (single isomer, unassigned) [Example 86, N-{3-fluoro-2-[(rel-2S)-1-methylpyrrolidin-2-yl]-1H-pyrrolo[3,2-c]pyridin-6-yl}-1-methylindazole-5-carboxamide]: the IC50 at MLLT1 [1] (category, Table 4) lay in the range of 1000 to 10000 nM; on MLLT3 (category, Table 4), 1000 to 10000 nM.

As for `CN1CCCC1c1[nH]c2cc(NC(=O)c3ccc4c(cnn4C)c3)ncc2c1F` (single isomer, unassigned) [Example 87, N-{3-fluoro-2-[(rel-2R)-1-methylpyrrolidin-2-yl]-1H-pyrrolo[3,2-c]pyridin-6-yl}-1-methylindazole-5-carboxamide], the IC50 was no more than 100 nM at MLLT1 [1] (category, Table 4) and no more than 100 nM on MLLT3 (category, Table 4).

Consider `Cc1nn(C)c2cc(C(=O)Nc3cc4[nH]c(C5CCCN5C)c(F)c4cn3)ccc12` (single isomer, unassigned) [Example 88, N-{3-fluoro-2-[(rel-2R)-1-methylpyrrolidin-2-yl]-1H-pyrrolo[3,2-c]pyridin-6-yl}-1,3-dimethylindazole-6-carboxamide], for which the IC50 is 17 nM at MLLT1 [1] (Table 5); no more than 100 nM on MLLT1 [1] (category, Table 4); 37 nM at MLLT3 (Table 5); no more than 100 nM at MLLT3 (category, Table 4).

As to `Cc1nn(C)c2cc(C(=O)Nc3cc4[nH]c(C5CCCN5C)c(F)c4cn3)ccc12` (single isomer, unassigned) [Example 89, N-{3-fluoro-2-[(rel-2S)-1-methylpyrrolidin-2-yl]-1H-pyrrolo[3,2-c]pyridin-6-yl}-1,3-dimethylindazole-6-carboxamide], the IC50 was in the range of 100 to 1000 nM on MLLT1 [1] (category, Table 4) and 1000 to 10000 nM at MLLT3 (category, Table 4).

For `Cc1c(C2CCCN2C)[nH]c2cc(NC(=O)c3ccc4c(C)nn(C)c4c3)ncc12` (single isomer, unassigned) [Example 90, 1,3-dimethyl-N-{3-methyl-2-[(rel-2R)-1-methylpyrrolidin-2-yl]-1H-pyrrolo[3,2-c]pyridin-6-yl}indazole-6-carboxamide], the concentration for half-maximal inhibition (IC50) on MLLT1 [1] (Table 5) is 12 nM; on MLLT1 [1] (category, Table 4), no more than 100 nM; at MLLT3 (Table 5), 45 nM; on MLLT3 (category, Table 4) it was no more than 100 nM.

Take `Cc1c(C2CCCN2C)[nH]c2cc(NC(=O)c3ccc4c(C)nn(C)c4c3)ncc12` (single isomer, unassigned) [Example 91, 1,3-dimethyl-N-{3-methyl-2-[(rel-2S)-1-methylpyrrolidin-2-yl]-1H-pyrrolo[3,2-c]pyridin-6-yl}indazole-6-carboxamide]: the IC50 is 1000 to 10000 nM on MLLT1 [1] (category, Table 4) and 1000 to 10000 nM at MLLT3 (category, Table 4).

As for `Cc1nn(CCCCCC2CCN(c3ccc4c(c3)C(=O)N(C3CCC(=O)NC3=O)C4=O)CC2)c2cc(C(=O)Nc3cc4[nH]c([C@H]5CCCN5C)cc4cn3)ccc12` (stereo partly drawn) [Example 109, 1-(5-(1-(2-(2,6-dioxopiperidin-3-yl)-1,3-dioxoisoindolin-5-yl)piperidin-4-yl)pentyl)-3-methyl-N-(2-((R)-1-methylpyrrolidin-2-yl)-1H-pyrrolo[3,2-c]pyridin-6-yl)-1H-indazole-6-carboxamide], the half-inhibitory concentration (IC50) with MV4-11 cells is less than 100 nM. Moreover, the “MLLT1% Degradation @ 0.01 μM” value on MLLT1 [2] (0.01 μM) is given as “A (Category A: A≥75% degradation)”. In addition, the “MLLT1% Degradation @ 0.1 μM” value at MLLT1 [2] (0.1 μM) is “A (Category A: A≥75% degradation)”. The “MLLT1% Degradation @ 1 μM” value at MLLT1 [2] (1 μM) is listed as “A (Category A: A≥75% degradation)”.

(Values after patent US20260199484A1, “PROTAC DEGRADERS OF MLLT1 AND/OR MLLT3” (DARK BLUE THERAPEUTICS LTD, priority 2024, published 2026).)
